“And” between values parts separate entries of the source, which are not always exact repeats. Equal entries are not always repeated.
Biological target: T1, β-Glucuronidase (E.C. 3.2.1.31 from bovine liver) (Bos taurus, UniProt A3KMY8)
T1 construct: β-Glucuronidase (E.C. 3.2.1.31 from bovine liver, G-0251); purchased Sigma Chemical Co. (St. Louis, MO, USA) G-0251; host or cells: bovine liver (tissue-derived preparation)
T1 sequence (A3KMY8 1-652): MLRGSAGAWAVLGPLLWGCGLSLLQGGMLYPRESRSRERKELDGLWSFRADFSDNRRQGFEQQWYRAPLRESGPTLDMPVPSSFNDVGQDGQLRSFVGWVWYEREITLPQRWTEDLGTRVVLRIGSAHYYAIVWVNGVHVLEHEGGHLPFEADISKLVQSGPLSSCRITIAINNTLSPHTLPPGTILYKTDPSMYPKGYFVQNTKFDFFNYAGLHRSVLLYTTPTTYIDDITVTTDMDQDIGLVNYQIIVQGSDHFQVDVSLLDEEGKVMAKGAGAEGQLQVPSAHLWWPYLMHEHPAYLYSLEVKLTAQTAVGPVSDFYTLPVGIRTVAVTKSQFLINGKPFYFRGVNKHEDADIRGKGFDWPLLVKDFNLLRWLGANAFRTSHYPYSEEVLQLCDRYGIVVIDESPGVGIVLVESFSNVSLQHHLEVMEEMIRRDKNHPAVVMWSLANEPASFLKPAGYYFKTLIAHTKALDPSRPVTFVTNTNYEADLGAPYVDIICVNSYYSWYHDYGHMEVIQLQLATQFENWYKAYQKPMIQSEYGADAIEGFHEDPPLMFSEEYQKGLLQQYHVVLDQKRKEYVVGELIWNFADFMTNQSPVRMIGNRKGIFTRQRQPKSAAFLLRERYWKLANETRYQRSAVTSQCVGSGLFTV
Test: In vitro β-glucuronidase inhibition assay (p-nitrophenyl-β-D-glucuronide, absorbance at 405 nm)
Format: biochemical
Conditions: for IC50: bovine liver enzyme, substrate p-nitrophenyl-β-D-glucuronide, 37 °C, 30 min, triplicate, ± SEM, NA = Not active; for β-glucuronidase inhibitory activity in words: qualitative statement
Procedure: Synthetic acyl hydrazides Schiff bases 1–28 were screened for their in vitro potential as β-glucoronidase inhibitors. The in vitro β-glucornidase inhibitory potential was evaluated by using the literature protocol.
β-Glucuronidase (E.C. 3.2.1.31 from bovine liver, G-0251) and p-nitrophenyl-β-D-glucuronide (N-1627) were purchased From Sigma Chemical Co. (St. Louis, MO, USA). Anhydrous Na2CO3 and all other reagents of standard grade were obtained from E. Merck. The anhydrous EtOH and CHCl3 used in the experiments were dried employing the standard methods. All other solvents and reagents like the benzoyl chloride were of standard grade.
β-D-Glucuronidase inhibition was determined by measuring the absorbance of the p-nitrophenol which is produce from the substrate at 405 nm. The total reaction volume was 250 µL. The reaction mixture contains 5 µL of test compound solution, 185 µL of 0.1 M acetate buffer, and 10 µL of enzyme, and it was incubated at 37 °C for 30 min. The plates were read on a multiplate reader at 405 nm after the addition of 50 µL of 0.4 mM p-nitrophenyl-β-D-glucuronide. All assays were performed in triplicate.

With `Cc1cc(Cl)ccc1OCC(=O)NN=Cc1cccc2ccccc12` [Compound 21, 2-(4-Chloro-2-methylphenoxy)-N'-[-1-naphthylmethylidene]acetohydrazide] the IC50 was 13.7 ± 0.4 µM and the “β-glucuronidase inhibitory activity in words” value was “excellent activity”.

In the case of `Cc1cc(Cl)ccc1OCC(=O)NN=Cc1ccc(O)c(O)c1` [Compound 16, 2-(4-Chloro-2-methylphenoxy)-N'-[-(3,4-dihydroxyphenyl)methylidene]acetohydrazide], the “β-glucuronidase inhibitory activity in words” value is reported as “completely inactive”.

For `Cc1cc(Cl)ccc1OCC(=O)NN=Cc1cccc([N+](=O)[O-])c1` [Compound 6, 2-(4-Chloro-2-methylphenoxy)-N'-[(3-nitrophenyl)methylidene]acetohydrazide], the “β-glucuronidase inhibitory activity in words” value was “inactivity”.

With `Cc1cc(Cl)ccc1OCC(=O)NN=Cc1cccc(O)c1O` [Compound 15, 2-(4-Chloro-2-methylphenoxy)-N'-[-(2,3-dihydroxyphenyl)methylidene]acetohydrazide] the IC50 was 12 ± 0.16 µM and the “β-glucuronidase inhibitory activity in words” value was “excellent activity”.

For `Cc1cc(Cl)ccc1OCC(=O)NN=Cc1ccco1` [Compound 13, 2-(4-Chloro-2-methylphenoxy)-N'-[-2-furylmethylidene]acetohydrazide], the “β-glucuronidase inhibitory activity in words” value was “completely inactive”.

With `Cc1cc(Cl)ccc1OCC(=O)NN=Cc1ccc2ccccc2c1` [Compound 22, 2-(4-Chloro-2-methylphenoxy)-N'-[-2-naphthylmethylidene]acetohydrazide] the IC50 was 22 ± 0.14 µM and the “β-glucuronidase inhibitory activity in words” value was “excellent activity”.

`Cc1cc(Cl)ccc1OCC(=O)NN=Cc1ccc(Cl)c(Cl)c1` [Compound 9, 2-(4-Chloro-2-methylphenoxy)-N'-[(3,4-dichlorophenyl)methylidene]acetohydrazide] was tested, and the “β-glucuronidase inhibitory activity in words” value was “completely inactive”.

With `CC(=NNC(=O)COc1ccc(Cl)cc1C)c1c(O)cc(O)cc1O` [Compound 19, 2-(4-Chloro-2-methylphenoxy)-N'-[1-(2,4,6-trihydroxyphenyl)ethylidene]acetohydrazide] the “β-glucuronidase inhibitory activity in words” value was “completely inactive”.

With `Cc1cc(Cl)ccc1OCC(=O)NN=Cc1ccsc1` [Compound 12, 2-(4-Chloro-2-methylphenoxy)-N'-[3-thienylmethylidene]acetohydrazide] the IC50 was 30.7 ± 1.49 µM and the “β-glucuronidase inhibitory activity in words” value was “excellent activity”.

`Cc1cc(Cl)ccc1OCC(=O)NN=Cc1ccc(Cl)cc1` [Compound 7, 2-(4-Chloro-2-methylphenoxy)-N'-[-(4-chlorophenyl)methylidene]acetohydrazide] was tested, and the IC50 was 14.7 ± 0.19 µM and the “β-glucuronidase inhibitory activity in words” value was “excellent activity”.

`Cc1cc(Cl)ccc1OCC(=O)NN=Cc1ccc(O)cc1` [Compound 20, 2-(4-Chloro-2-methylphenoxy)-N'-[(4-hydroxyphenyl)methylidene]acetohydrazide] was tested, and the “β-glucuronidase inhibitory activity in words” value was “completely inactive”.

With `COc1ccccc1C=CC=NNC(=O)COc1ccc(Cl)cc1C` [Compound 1] the IC50 was 9.2 ± 0.32 µM, the “activity relative to the standard D-saccharic acid-1,4-lactone” value (fold better than standard by IC50) was “fivefold better than the standard” and the “β-glucuronidase inhibitory activity in words” value was “excellent activity”.

For `Cc1ccc(C=NNC(=O)COc2ccc(Cl)cc2C)o1` [Compound 14, 2-(4-Chloro-2-methylphenoxy)-N'-[-(5-methyl-2-furyl)methylidene]acetohydrazide], the “β-glucuronidase inhibitory activity in words” value was “completely inactive”.

With `Cc1cc(Cl)ccc1OCC(=O)NN=Cc1c(Cl)cccc1Cl` [Compound 10, 2-(4-Chloro-2-methylphenoxy)-N'-[(2,6-dichlorophenyl)methylidene]acetohydrazide] the “β-glucuronidase inhibitory activity in words” value was “completely inactive”.

With `Cc1cc(Cl)ccc1OCC(=O)NN=Cc1ccccc1[N+](=O)[O-]` [Compound 5, 2-(4-Chloro-2-methylphenoxy)-N'-[(2-nitrophenyl)methylidene]acetohydrazide] the IC50 was 9.47 ± 0.16 µM and the “β-glucuronidase inhibitory activity in words” value was “excellent activity”.

For `Cc1cc(Cl)ccc1OCC(=O)NN=Cc1cccc(O)c1` [Compound 18, 2-(4-Chloro-2-methylphenoxy)-N'-[(3-hydroxyphenyl)methylidene]acetohydrazide], the “β-glucuronidase inhibitory activity in words” value was “completely inactive”.

In the case of `CC(=NNC(=O)COc1ccc(Cl)cc1C)c1ccc(O)cc1` [Compound 17, 2-(4-Chloro-2-methylphenoxy)-N'-[1-(4-hydroxyphenyl)ethylidene]acetohydrazide], the “β-glucuronidase inhibitory activity in words” value is reported as “completely inactive”.

`COc1ccc(C=CC=NNC(=O)COc2ccc(Cl)cc2C)cc1` [Compound 2] was tested, and the “β-glucuronidase inhibitory activity in words” value was “inactive”.

`Cc1cc(Cl)ccc1OCC(=O)NN=Cc1ccccc1F` [Compound 11, 2-(4-Chloro-2-methylphenoxy)-N'-[-(2-fluorophenyl)methylidene]acetohydrazide] was tested, and the IC50 was 19 µM and 19.6 µM and the “β-glucuronidase inhibitory activity in words” value was “excellent activity”.
